Reference: US5866548A, “Caged membrane-permeant inositol phosphates” (priority 1996, dated 1999)
Entries after “also recorded” stand apart in the source; their conditions may differ. Values belong to the molecule of their own block, whether it stands above or below them.

Key:
[1] = Membrane permeability; assay type: in vitro ADME
[2] = system: intestinal cell line T84; test: cells; assay type: cell-based; settings: for EC50: 0.2 h, T84, ISC 12 min after addition, read-out: EC50 (chloride secretion)
Source text: A convenient test system is the intestinal cell line T84, in which chloride secretion can be continuously monitored by mounting confluent monolayers of cells in Ussing chambers (42).

[3] = target: cAMP-dependent kinase type I (FICRhR) (Bos taurus, UniProt P00514); assay type: biochemical
Source text: When PKA is doubly labeled with fluorescein on its catalytic subunits and rhodamine on its regulatory subunits to produce FICRhR, fluorescence energy transfer from the fluorescein to rhodamine occurs in the holoenzyme complex but is disrupted upon activation and dissociation of the subunits. The change in the ratio of fluorescein to rhodamine emissions parallels the increase in kinase activity and can be nondestructively imaged in single cells. REF-52 fibroblasts were microinjected with FICRhR and emission ratio images recorded at room temperature as previously described (27).

[4] = system: angelfish melanophores; test: Pigment dispersion in fish dermal melanophores; assay type: cell-based, angelfish (Pterophyllum scalare); settings: for reversibility of dispersion: removal of compound and epinephrine
Description: Melanophores permit a visual single-cell assay for the ability of cAMP analogs to enter cells and mimic cAMP actions. The melanophores were isolated on angelfish scales and the epidermis was stripped off. […] Dispersion was just detectable at 1 μM and half-maximal near 10 μM (FIG. 3A). […] The preceding examples are summarized in (64).

[5] = system: cAMP-dependent protein kinase (PKA); assay type: cell-based
[6] = system: 1321N1 astrocytoma cells; test: [Ca2+]i response before and after UV uncaging, fluo-3; assay type: cell-based
Description: (b) Same experiment as (a) except done in Ca^2+ free medium (DPBS, O Ca^2+, 0.5 mM EGTA). UV exposure of the cells treated with IP3 -CPM still gave the same response, showing that the [Ca^2+ ]i increase resulted from the release of Ca^2+ from internal stores. […] The cells were loaded with fluo-3/AM. During the experiment the cells were bathed in HBS buffered with 20 mM Hepes at pH 7.4 and supplemented with 2 g/L glucose.
The [Ca^2+ ]i was monitored using the calcium indicator fluo-3 rather than fura-2 to keep the excitation wavelength of the indicator (490 nm) far from the uncaging wavelength (360 nm) of DMNB group. […] Compared to the photolyzing set-up (direct illumination by a hand mercury lamp) used for the IP3 -binding assay, the optical throughput from the source lamp to the specimen is much higher in a microscope, so 10 seconds (as opposed to 2 hours in IP3 binding assay) of photolysis was sufficient to produce enough IP3 to elicit [Ca^2+ ]i increase. The same amount of UV alone had no effect at all on [Ca^2+ ]i in cells not treated with IP3 -CPM. After recovering from uncaging of IP3 -CPM, the cells responded to subsequent carbachol and thapsigargin stimulation normally.
This confirmed that the [Ca^2+ ]i increase due to uncaging of IP3 -CPM resulted from internal Ca^2+ release, which was consistent with the normal mechanism of IP3 action.

[7] = target: T1, IP3 receptor (IP3 R) (Bos taurus, UniProt Q9TU34); test: [3H]IP3 binding assay, bovine cerebellum microsomal fractions
T1 construct: from tissue; host or cells: bovine cerebellum microsomal fractions
Description: Bovine cerebellum microsomal fractions, which are a rich source of IP3 binding protein, were prepared and used for [^3 H]IP3 binding assay. […] The IC50 of D-IP3 was about 8 nM.
At this point, the crude photolysis product from 100 pmol V-16 was equivalent in binding activity to 32 pmol of authentic IP3. […] The absolute stereochemistry of V-3 and its diastereomer was thus assigned.

[8] = system: phosphatase; test: Intracellular retention and metabolic (phosphatase) stability; assay type: in vitro ADME
Description: In human embryonic kidney cells (HEK cells), the extracellular IP3 -CPM was washed away after the cells had been loaded with 50 μM of IP3 -CPM for 20 minutes. […] Cells in the same dish which had not been exposed to UV light were kept in the dark for over 6 hours. […] However, pretreatment of IP3 -CPM with acetic acid will unmask the 3-hydroxyl and enable the intracellular phosphorylation of delivered IP3.

[9] = system: REF-52 fibroblasts; test: Cytosolic free Ca2+ imaging, fura-2; assay type: cell-based
Description: The best-established biological effect of IP3 is to release Ca^2+ from internal stores (26), so IP3 /PM (5a, R=Et, R'=H) was tested by imaging cytosolic free Ca^2+ levels in single REF-52 fibroblasts using standard methodology (58). Cells were loaded with the Ca^2+ -indicator fura-2 and viewed by fluorescence excitation ratioing. IP3 /PM (40 μM) was applied extracellularly while monitoring cytosolic Ca^2+ concentrations.

[10] = system: 1321N1 astrocytoma cells; test: Cytosolic free Ca2+ imaging, fura-2; assay type: cell-based
Description: Biological tests on 1321N1 astrocytoma cells were performed similarly to the tests on REF-52 cells (71). The concentration of Cytosolic free Ca^2+ (ordinate, in units of μM) in fura-2-loaded 1321N1 astrocytoma cells is shown as a function of time (abscissa, in units of seconds). At the dotted vertical line labeled 1, 20 μM inositol-1,4,5-triphosphate propionyloxymethyl ester (5a, R=Et, R'=H) was added. […] Subsequently the cells could respond to carbachol (200 μM, delivered at the dotted vertical line labeled 2), a drug that stimulates the endogenous generation of inositol-1,4,5-triphosphate. However, the response to carbachol is depressed by the prior treatment with the inositol-1,4,5-triphosphate propionyloxymethyl ester. Likewise the Ca^2+ response to thapsigargin (100 nM, delivered at the dotted vertical line labeled 3), another drug that releases stored Ca^2+, is depressed.
A test similar to the one shown in FIG. 7 was conducted except that the medium lacked extracellular Ca^2+ and a dose of 60 μM inositol-1,4,5-triphosphate propionyloxymethyl ester was added at the dotted vertical line labeled 1. […] Because no extracellular Ca^2+ was present, this response must have represented release from intracellular Ca^2+ stores. […] The much greater degree of inhibition of the carbachol response compared to the previous example (FIG. 7) is due to the higher dose of the inositol-1,4,5-triphosphate propionyloxymethyl ester and the absence of extracellular Ca^2+, which reduces refilling of Ca^2+ stores.
In a further example, the same test as set forth above was conducted with astrocytoma cells, except that 2 μM inositol-1,4,5-triphosphate butyryloxymethyl ester (5a, R=Pr, R'=H) was used instead of the propionyloxymethyl ester.

[11] = 20 μM compound, with extracellular Ca2+

T1 sequence (Q9TU34 whole entry): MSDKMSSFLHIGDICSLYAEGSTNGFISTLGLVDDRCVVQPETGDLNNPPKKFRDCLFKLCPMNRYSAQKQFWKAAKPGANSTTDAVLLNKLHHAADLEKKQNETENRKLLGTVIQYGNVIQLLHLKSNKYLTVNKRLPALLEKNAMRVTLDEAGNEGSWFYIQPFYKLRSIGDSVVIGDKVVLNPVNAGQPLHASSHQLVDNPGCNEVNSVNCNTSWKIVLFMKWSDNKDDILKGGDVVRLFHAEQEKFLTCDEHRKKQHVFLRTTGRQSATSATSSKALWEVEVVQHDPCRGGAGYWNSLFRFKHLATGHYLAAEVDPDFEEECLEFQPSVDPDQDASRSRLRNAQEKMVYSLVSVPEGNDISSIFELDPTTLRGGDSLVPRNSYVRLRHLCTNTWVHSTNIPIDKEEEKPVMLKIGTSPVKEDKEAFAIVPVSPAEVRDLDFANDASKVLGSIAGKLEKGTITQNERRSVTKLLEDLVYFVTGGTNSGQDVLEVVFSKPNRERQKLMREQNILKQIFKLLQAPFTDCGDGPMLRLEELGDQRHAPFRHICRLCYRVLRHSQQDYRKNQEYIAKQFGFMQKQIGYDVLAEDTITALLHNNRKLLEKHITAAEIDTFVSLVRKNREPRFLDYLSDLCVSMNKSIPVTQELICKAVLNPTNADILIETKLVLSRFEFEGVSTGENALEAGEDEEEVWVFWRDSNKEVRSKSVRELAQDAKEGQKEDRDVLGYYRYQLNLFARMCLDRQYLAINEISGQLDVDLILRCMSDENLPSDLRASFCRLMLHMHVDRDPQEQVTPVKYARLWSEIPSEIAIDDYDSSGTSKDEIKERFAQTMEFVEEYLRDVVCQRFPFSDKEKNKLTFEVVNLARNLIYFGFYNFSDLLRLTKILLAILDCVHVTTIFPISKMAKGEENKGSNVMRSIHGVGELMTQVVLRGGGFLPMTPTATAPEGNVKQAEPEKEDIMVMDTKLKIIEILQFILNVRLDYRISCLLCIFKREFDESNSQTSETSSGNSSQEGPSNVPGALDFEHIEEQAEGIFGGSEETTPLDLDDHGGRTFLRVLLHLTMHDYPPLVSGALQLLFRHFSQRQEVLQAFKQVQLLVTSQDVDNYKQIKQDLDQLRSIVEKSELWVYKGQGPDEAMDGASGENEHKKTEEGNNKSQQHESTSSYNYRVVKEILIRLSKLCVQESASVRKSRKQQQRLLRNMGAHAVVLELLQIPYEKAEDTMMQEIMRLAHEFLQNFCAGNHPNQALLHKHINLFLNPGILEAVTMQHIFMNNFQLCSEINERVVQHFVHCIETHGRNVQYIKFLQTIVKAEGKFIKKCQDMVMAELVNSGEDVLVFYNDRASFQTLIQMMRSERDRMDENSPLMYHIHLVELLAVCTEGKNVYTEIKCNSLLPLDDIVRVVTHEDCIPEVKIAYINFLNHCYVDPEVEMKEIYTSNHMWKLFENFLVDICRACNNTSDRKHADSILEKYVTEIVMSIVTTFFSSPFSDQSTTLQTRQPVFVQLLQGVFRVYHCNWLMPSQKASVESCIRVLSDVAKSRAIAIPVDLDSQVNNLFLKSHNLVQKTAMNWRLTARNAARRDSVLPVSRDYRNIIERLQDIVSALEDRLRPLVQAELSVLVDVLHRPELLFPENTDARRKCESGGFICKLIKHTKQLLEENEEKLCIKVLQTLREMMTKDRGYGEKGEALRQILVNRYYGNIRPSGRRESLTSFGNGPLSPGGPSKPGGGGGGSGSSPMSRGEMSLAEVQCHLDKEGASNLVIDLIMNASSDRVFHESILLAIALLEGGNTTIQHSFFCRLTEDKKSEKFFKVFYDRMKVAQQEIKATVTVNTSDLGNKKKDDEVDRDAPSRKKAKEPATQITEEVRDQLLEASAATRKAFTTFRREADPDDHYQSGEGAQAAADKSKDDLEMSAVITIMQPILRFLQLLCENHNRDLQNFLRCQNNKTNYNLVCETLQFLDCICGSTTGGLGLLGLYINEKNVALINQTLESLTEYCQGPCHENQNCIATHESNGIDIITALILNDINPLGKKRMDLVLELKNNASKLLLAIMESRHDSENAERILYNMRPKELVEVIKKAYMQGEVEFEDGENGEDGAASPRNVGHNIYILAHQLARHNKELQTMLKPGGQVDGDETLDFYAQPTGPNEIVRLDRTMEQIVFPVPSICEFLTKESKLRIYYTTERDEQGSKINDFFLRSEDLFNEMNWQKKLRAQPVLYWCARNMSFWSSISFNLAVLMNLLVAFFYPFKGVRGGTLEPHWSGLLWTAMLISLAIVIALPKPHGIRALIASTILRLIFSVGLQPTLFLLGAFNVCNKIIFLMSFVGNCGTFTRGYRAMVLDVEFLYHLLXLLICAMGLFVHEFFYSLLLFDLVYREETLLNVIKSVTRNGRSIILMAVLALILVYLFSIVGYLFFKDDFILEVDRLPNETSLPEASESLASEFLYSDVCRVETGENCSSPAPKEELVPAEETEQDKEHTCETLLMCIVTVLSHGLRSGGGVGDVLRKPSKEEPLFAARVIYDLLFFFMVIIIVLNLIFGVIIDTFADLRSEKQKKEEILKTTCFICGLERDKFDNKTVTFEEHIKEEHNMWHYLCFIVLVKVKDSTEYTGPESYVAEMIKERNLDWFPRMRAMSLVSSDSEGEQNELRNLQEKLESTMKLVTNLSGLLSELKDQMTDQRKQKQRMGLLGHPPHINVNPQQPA
Sequence of cAMP-dependent kinase type I (FICRhR) (P00514 whole entry): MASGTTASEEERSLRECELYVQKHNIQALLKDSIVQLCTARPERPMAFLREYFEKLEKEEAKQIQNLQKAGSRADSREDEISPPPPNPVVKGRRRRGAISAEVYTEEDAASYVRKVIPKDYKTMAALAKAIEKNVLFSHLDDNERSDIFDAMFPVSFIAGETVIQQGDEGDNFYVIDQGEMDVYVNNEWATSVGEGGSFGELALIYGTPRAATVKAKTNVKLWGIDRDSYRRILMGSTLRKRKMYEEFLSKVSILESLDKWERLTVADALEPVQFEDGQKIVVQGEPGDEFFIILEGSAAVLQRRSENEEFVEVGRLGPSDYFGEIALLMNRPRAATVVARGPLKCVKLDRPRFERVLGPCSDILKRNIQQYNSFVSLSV

Structure (SMILES): CCCC(=O)Nc1ncnc2c1ncn2[C@@H]1O[C@@H]2COP(=O)(O)O[C@H]2[C@H]1OC(=O)CCC [Bt2 cAMP, N^6,O^2' -dibutyryl cAMP, reference compound]
membrane permeability (in words) [1]: poor permeability
EC50 [2]: 400 µM
potency relative to cAMP ([3]; in vitro binding to FICRhR): roughly 1/100
pigment dispersion ([4]; 1 mM): unable to cause any detectable dispersion
delay and overall time course of PKA activation (in words) ([5]; REF-52, extracellular): Much the same delay and overall time course

Structure (SMILES): CCCC(=O)Nc1ncnc2c1ncn2[C@@H]1O[C@@H]2COP(=O)(OCOC(C)=O)O[C@H]2[C@H]1OC(=O)CCC (some centres unmarked) [Bt2 cAMP/AM, N^6,O^2' -Dibutyryl Adenosine 3',5'-cyclic Monophosphate Acetoxymethyl Ester]
EC50 [2]: 2 µM
increase in potency by acetoxymethyl group vs Bt2 cAMP ([2]; T84): 200 fold
kinetics of activation of chloride secretion (in words) ([2]; T84, Bt2 cAMP/AM vs Bt2 cAMP): essentially indistinguishable kinetics of activation
separation of the subunits of FICRhR (in words) ([3]; in vitro, 10 μM): no separation of the subunits
increase in potency by AM ester group vs Bt2 cAMP [4]: more than 1000
pigment dispersion ([4]; 100 μM): essentially complete dispersal
reversibility of dispersion ([4]; 100 μM): easily reversed
reversibility of dispersion ([4]; 1 mM): could not be readily reversed
onset of dispersion ([4]; 1 mM, vs 100 μM): slightly faster onset of action
onset of separation of regulatory and catalytic subunit of FICRhR after addition ([5]; REF-52, extracellular): roughly 2 min
plateau, % of the maximal change in fluorescence ratio ([5]; REF-52, extracellular 1 μM): over 50%
change in fluorescence ratio (PKA activation) ([5]; REF-52, extracellular 10 μM, within 15 min): maximal change in fluorescence ratio within 15 min

Structure (SMILES): CCC(=O)OCOP(=O)(OCOC(=O)CC)O[C@@H]1[C@H](O)[C@H](O)[C@@H](OP(=O)(OCOC(=O)CC)OCOC(=O)CC)[C@H](OP(=O)(OCOC(=O)CC)OCOC(=O)CC)[C@H]1O [IP3 /PM, D-myo-inositol-1,4,5-triphosphate propionyloxymethyl ester]
effect of subsequent vasopressin after compound ([9]; REF-52, 40 μM compound): much less effect than normal
cytosolic Ca2+ concentration ([9]; REF-52, 40 μM extracellular): increased rapidly
Ca2+ release from internal stores (in words) ([9]; intact REF-52 fibroblasts and astrocytoma cells): released Ca^2+ from internal stores
response to subsequent carbachol (200 μM) [10, 11]: depressed
response to subsequent thapsigargin (100 nM) [10, 11]: depressed
delay of Ca2+ elevation ([10]; 20 μM, with extracellular Ca2+): about 100 second
elevation of cytosolic Ca2+ ([10]; 20 μM, with extracellular Ca2+): sizable elevation of cytosolic Ca^2+
response to subsequent carbachol (200 μM) ([10]; 60 μM compound, no extracellular Ca2+): greatly depressed
delay of Ca2+ elevation ([10]; 60 μM, no extracellular Ca2+): ~50 s
elevation of cytosolic Ca2+ ([10]; 60 μM, no extracellular Ca2+): sizable elevation of cytosolic Ca^2+

Continued, in another order:

amount of authentic IP3 equivalent in binding activity to crude photolysis product from 100 pmol V-16 ([7]; after about 2 h photolysis): 32 pmol
binding to the receptor upon photolysis ([7]; photolysis at 366 nm): UV-dose-dependent increase of binding
time at which binding leveled off on photolysis ([7]; photolysis at 366 nm): about 2 hours
affinity to IP3 R / binding to cerebellar microsomes (in words) ([7]; without photolysis): negligible binding
Structure (SMILES): COc1cc(CO[C@@H]2[C@@H](OP(=O)(O)O)[C@H](OP(=O)(O)O)[C@H]3OC(OC)O[C@H]3[C@H]2OP(=O)(O)O)c([N+](=O)[O-])cc1OC (stereo partly drawn) [Compound V-16, D-2,3-O-methoxymethylene-6-O-(4,5-dimethoxy-2-nitrobenzyl)-myo-inositol 1,4,5-trisphosphate]
releasing Ca2+ without photolysis ([6]; caged IP3 analog released inside cells): inactive in releasing Ca^2+
phosphatase degradation / metabolic stability (in words) ([8]; in cells): metabolically fairly stable; also recorded: fairly resistant to phosphatase degradation
retention in cells (in words) ([8]; in cells): well retained in cells; also recorded: could be trapped inside cells for a long period of time without losing much of its activity

affinity for IP3 receptor, fold weaker than IP3 ([7]; assuming 100% chemical yield of uncaged product): 3 fold
affinity to IP3 R relative to IP3 ([7]; photolysis product): at least one third
Structure (SMILES): COC1O[C@@H]2[C@@H](OP(=O)(O)O)[C@H](OP(=O)(O)O)[C@@H](O)[C@H](OP(=O)(O)O)[C@@H]2O1 (stereo partly drawn) [D-2,3-methoxymethylene-myo-inositol 1,4,5-trisphosphate]
internal Ca2+ release upon photolysis (in words) ([6]; photolysis product of V-16 in cells): induced internal Ca^2+ release
phosphorylation into 1,3,4,5-IP4 (in words) [8]: can not be phosphorylated into 1,3,4,5-IP4
